Source: US10966995B2, “Use of secoisolariciresinol diglucosides (SDGS) and related compounds for protection against radiation and chemical damage” (THE TRUSTEES OF THE UNIVERSITY OF PENNSYLVANIA, priority 2014, dated 2021)

Key:
[1] = Tolerability of SDG given twice daily for 7 days; assay type: in vivo; details: 100 mg/Kg given twice daily for 7 days
[2] = system: human epithelial cells (A549); assay: BaP-induced oxidative DNA damage (8-oxo-dGuo, mass spectrometry); assay type: cell-based; details: SDG 10 μM; 25 μM BaP; 3 and 6 hours post carcinogen exposure
[3] = system: murine primary lung fibroblasts; assay: Morphological detection of apoptotic cells, fibroblasts; assay type: cell-based, mouse; details: SDG pre-treatment; irradiated
Description: (§1) Fibroblasts and endothelial cells were isolated from C57/bl6 mouse. For fibroblast isolation, mouse lungs were harvested, minced, and incubated with dispase (2 mg/ml) for 45 minutes. Pieces were plated out and fibroblasts were cultured as described previously and used between passages 3 and 10. Pulmonary microvascular endothelial cells (PMVEC) were isolated from murine lungs as described previously. Briefly, freshly harvested mouse lungs were treated with collagenase followed by isolation of cells by adherence to magnetic beads coated with mAb to platelet endothelial cell adhesion molecule (PECAM). […]
(§2) Apoptotic cells are morphologically characterized by condensation of nucleus and cytoplasm, membrane blebbing, cell shrinkage, and breakdown of nuclear DNA, first in large segments and subsequently in nucleosomal fragments and finally formation of well-enclosed apoptotic bodies. Percentage of cells undergoing apoptosis was determined microscopically from the slides used for micronuclei detection (cytogenetic damage). At least, 500 cells were counted for each experiment (experiment done twice) and percent apoptotic cells were determined as follows: % Cell Death=Na/Nt×100, where Na is the number of cells with apoptotic bodies and Nt is the total number of cells analyzed. Gene Expression Analysis by Quantitative Real Time PCR (qPCR)

[4] = system: plasmid DNA; assay: Hypochlorite-induced damage to plasmid DNA; assay type: biochemical; details: SDG 25 μM; 4.5 mM HOCl
Description: Calf thymus or plasmid DNA was incubated with hypochlorite for 2 hrs at 37° C. DNA samples were subjected to agarose (1%) gel electrophoresis and analyzed.

[5] = system: murine primary lung endothelial cells; assay: Morphological detection of apoptotic cells, endothelial cells; assay type: cell-based, mouse; details: SDG 50 μM pre-treatment; irradiated; 24 h; IR alone 15.1%
Description: as §1, §2

[6] = system: Murine primary lung cells (epithelial cells); assay: qPCR of Bax and Bcl-2 gene expression after irradiation; assay type: cell-based, mouse; details: for Bcl-2 mRNA levels, increase: SDG pre-treated cells
Description: qPCR was performed using TaqMan® Probe-Based Gene Expression Assays supplied by Applied Biosystems, Life Technologies (Carlsbad, Calif.). To evaluate the effect of SDG treatment on the mRNA expression of apoptotic genes, individual TaqMan® gene expression assays were performed for Bax (Mm00432051_m1) and Bcl-2 (Mm00477631_m1).
Briefly, cells were pre-treated with SDG (50 μM, 6 hrs) and irradiated (2 Gy). Total RNA was isolated from using RNeasy Plus Mini Kit (Qiagen, Valencia, Calif.) and quantified using a NanoDrop 2000 (ThermoFisher Scientific, Waltham, Mass.). Reverse transcription of RNA to cDNA was then performed on a Veriti® Thermal Cycler using the High Capacity RNA to cDNA kit supplied by Applied Biosystems, Life Technologies (Carlsbad, Calif.). qPCR was performed using 25 ng of cDNA per reaction well on a StepOnePlus™ Real-Time PCR System (Applied Biosystems, Life Technologies, Carlsbad, Calif.). Gene expression data was normalized to 18S ribosomal RNA and calibrated to untreated control samples according to the ΔΔCT method.

[7] = system: murine primary lung epithelial cells; assay: γ-H2AX foci immunostaining, epithelial cells; assay type: cell-based, mouse; details: SDG 50 μM 6 h prior IR; 2 Gy; irradiated control 46.7% at 30 min
Description: (§3) Fibroblasts and endothelial cells were isolated from C57/bl6 mouse. For fibroblast isolation, mouse lungs were harvested, minced, and incubated with dispase (2 mg/ml) for 45 minutes. Pieces were plated out and fibroblasts were cultured as described previously and used between passages 3 and 10. Pulmonary microvascular endothelial cells (PMVEC) were isolated from murine lungs as described previously. Briefly, freshly harvested mouse lungs were treated with collagenase followed by isolation of cells by adherence to magnetic beads coated with mAb to platelet endothelial cell adhesion molecule (PECAM). Epithelial cells (C10) cells were originally derived from a normal BALB/c mouse lung explant and are non-tumorigenic, contact-inhibited, and have alveolar type 2 cell features at early passage.
For immunostaining of γ-H2AX, cells were plated on glass coverslips (5,000 cells/coverslip), pre-treated (6 h) with 50 μM SDG and irradiated (2 Gy). At desired time interval, cells were fixed (4% para-formaldehyde), washed and blocked with PBST (PBS+0.1% TritonX-100 containing 5% goat serum, 1% BSA). Cells were incubated with γ-H2AX primary antibody (1:200) overnight at 4° C. followed by washing with PBST (3×5 min) and incubation with secondary antibody (Alexa Fluor® 488, Invitrogen, Calif., USA) for 1 hr at RT. Nuclei were counterstained with DAPI and visualized under fluorescence microscope.

[8] = system: murine primary lung cells (epithelial cells, endothelial cells and WT fibroblasts); assay: γ-H2AX flow cytometry (FACS) in irradiated primary lung cells; assay type: cell-based, mouse; details: SDG 50 μM 6 h pre-treatment; 2 Gy; all cell types
Description: as §3
For FACS analysis, cells were trypsinized and washed with PBS. Cells were then fixed (Fix/Perm buffer, eBioscience), for 45 minutes and washed thereafter using permeabilization wash buffer (BioLegend, USA). […] Cells were washed again with wash buffer and analyzed. The CyAn ADP (Advanced Digital Processing) flow cytometer (Dako, Denmark) Coulter, Fullerton, Calif.) was used to measure γ-H2AX and positive cells were quantified using Summit Software (Dako, Denmark).

[9] = γ-Radiation-induced chlorination of 2-AP
From the text: 2-AP in PBS was exposed to hypochlorite and fluorescence spectra recorded between 360-390 nm with the emission maximum at 374 nm. The % change in 2-AP calculated.
To determine whether radiation induces nucleobase chlorination, we used the same system as above, namely 2-AP fluorescence (FIG. 19A).

[10] = system: human epithelial cells; assay: BaP-induced DNA adduct formation; assay type: cell-based; details: given alone or in combination
From the text: Similarly, SDG prevents genotoxic stress in human epithelial cells exposed to BaP. Exposure of cells to a potent carcinogen such as BaP, induces genotoxic stress as indicated by increased levels of p53 protein (FIG. 25). […] SDG also prevents oxidative DNA damages in human epithelial cells exposed to BaP. Exposure of cells to a potent carcinogen such as BaP, induces oxidative DNA damage as indicated by increased levels of gamma-H2AX, a marker for double-stranded DNA breaks (FIG. 26). […] Furthermore, SDG prevents DNA adduct formation in human epithelial cells exposed to BaP. Exposure of cells to a potent carcinogen such as BaP, induces the formation of DNA adducts (FIG. 27). DNA adducts are pieces of DNA covalently linked to a carcinogen and is directly linked to the development of malignancy. The DNA adduct levels is decreased by the presence of SDG or its metabolites ED and EL given alone or in combination.

COc1cc(C[C@@H](CO[C@@H]2O[C@H](CO)[C@@H](O)[C@H](O)[C@H]2O)[C@H](CO[C@@H]2O[C@H](CO)[C@@H](O)[C@H](O)[C@H]2O)Cc2ccc(O)c(OC)c2)ccc1O [SDG, secoisolariciresinol diglucoside]
Intolerance / toxicity [1]: neither intolerance nor toxicity | Oxidative DNA damage (8-oxo-dGuo) [2]: decreased DNA damage | Extent of apoptosis [3]: significantly reduced | Open coiled (OC) form of plasmid DNA [4]: 18.6%±9.4 | Super coiled (SC) form of plasmid DNA [4]: 81.3%±9.4 | Apoptotic cells [5]: 10.71%±1.45 | IR-induced increase in pro-apoptotic Bax mRNA levels ([6]; SDG 50 μM pre-treatment, 2 Gy, 24 and 48 hours post-IR): significantly (p<0.05) inhibited | Bcl-2 mRNA levels, increase ([6]; 24 hours post-IR): 6.6 fold | Bcl-2 mRNA levels, increase ([6]; 48 hours post-IR): 3.5 fold | γ-H2AX positive cells [7]: 22.7%±2.17 | Number of γ-H2AX positive cells (flow cytometry) [8]: significantly abrogated | γ-radiation-induced decrease in 2-AP fluorescence intensity [9]: prevented | DNA adduct levels [10]: decreased
